The source of these data is ChEMBL document CHEMBL1909046, “DrugMatrix in vitro pharmacology data”.

The nature of data set [1]: DRUGMATRIX: Calcium Channel Type L, Dihydropyridine radioligand binding (ligand: [3H] Nitrendipine). Type of data set: cell membranes, Rattus norvegicus, Wistar, Cerebral cortex, Membrane. The conditions noted are these: Not Active = under 50% inhibition at 10 µM.
In data set [2] the target is T1, Thromboxane-A synthase (Homo sapiens, UniProt P24557).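 Further: enzyme inhibition assay with PGH2 supplied as substrate; in other assays of this panel Not Active means under 50% inhibition at 10 µM.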
T1 sequence (P24557 whole entry): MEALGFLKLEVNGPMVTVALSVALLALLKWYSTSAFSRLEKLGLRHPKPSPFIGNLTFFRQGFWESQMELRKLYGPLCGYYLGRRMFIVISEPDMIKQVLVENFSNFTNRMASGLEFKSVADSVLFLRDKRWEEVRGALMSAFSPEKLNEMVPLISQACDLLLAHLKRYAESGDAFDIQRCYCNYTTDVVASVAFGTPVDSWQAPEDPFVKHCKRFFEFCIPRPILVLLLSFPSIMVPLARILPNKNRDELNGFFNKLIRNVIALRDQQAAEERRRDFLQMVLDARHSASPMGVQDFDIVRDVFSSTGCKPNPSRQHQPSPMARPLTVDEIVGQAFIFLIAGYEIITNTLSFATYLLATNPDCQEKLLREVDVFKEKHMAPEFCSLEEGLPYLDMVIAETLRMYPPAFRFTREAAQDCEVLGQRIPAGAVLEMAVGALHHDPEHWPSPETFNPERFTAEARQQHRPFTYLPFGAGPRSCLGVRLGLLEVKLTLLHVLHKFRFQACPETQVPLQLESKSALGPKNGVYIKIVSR
The data set is described as follows: biochemical. Type of data set: tissue-based, Platelet.

The target in data set [3] is Cannabinoid receptor 1 (Homo sapiens, UniProt P21554). Format: cell membranes, Chem-1, Membrane. Further: in other assays of this panel Not Active means under 50% inhibition at 10 µM.
Data set [4] deals with T2, C-X-C chemokine receptor type 1 (Homo sapiens, UniProt P25024).
T2 sequence (P25024 whole entry): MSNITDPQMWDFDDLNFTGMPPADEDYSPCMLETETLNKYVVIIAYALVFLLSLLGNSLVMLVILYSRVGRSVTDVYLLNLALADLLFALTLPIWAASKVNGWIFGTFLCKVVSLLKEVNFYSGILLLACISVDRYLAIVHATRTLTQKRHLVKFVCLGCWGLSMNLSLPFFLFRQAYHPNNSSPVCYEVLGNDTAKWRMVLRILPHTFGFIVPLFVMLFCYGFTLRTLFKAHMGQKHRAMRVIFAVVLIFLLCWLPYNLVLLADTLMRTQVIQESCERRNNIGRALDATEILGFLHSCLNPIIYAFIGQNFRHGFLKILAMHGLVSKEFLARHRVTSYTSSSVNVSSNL

Data set [5] in a line: DRUGMATRIX: Interleukin IL-1 radioligand binding (ligand: [125I] interleukin 1beta). The conditions noted are these: nih3t3; Not Active = under 50% inhibition at 10 µM. Type of data set: cell membranes, Membrane.
Data set [6] in a line: DRUGMATRIX: Phorbol Ester radioligand binding (ligand: [3H] PDBu). The conditions noted are these: Not Active = under 50% inhibition at 10 µM. Type of data set: cell membranes, Mus musculus, ICR, Brain, Membrane.
For data set [7], the target named is T3, Caspase-1 (Homo sapiens, UniProt P29466).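 Further: Caspase-1 enzyme inhibition assay with a peptide substrate; in other assays of this panel Not Active means under 50% inhibition at 10 µM.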
T3 sequence (P29466 whole entry): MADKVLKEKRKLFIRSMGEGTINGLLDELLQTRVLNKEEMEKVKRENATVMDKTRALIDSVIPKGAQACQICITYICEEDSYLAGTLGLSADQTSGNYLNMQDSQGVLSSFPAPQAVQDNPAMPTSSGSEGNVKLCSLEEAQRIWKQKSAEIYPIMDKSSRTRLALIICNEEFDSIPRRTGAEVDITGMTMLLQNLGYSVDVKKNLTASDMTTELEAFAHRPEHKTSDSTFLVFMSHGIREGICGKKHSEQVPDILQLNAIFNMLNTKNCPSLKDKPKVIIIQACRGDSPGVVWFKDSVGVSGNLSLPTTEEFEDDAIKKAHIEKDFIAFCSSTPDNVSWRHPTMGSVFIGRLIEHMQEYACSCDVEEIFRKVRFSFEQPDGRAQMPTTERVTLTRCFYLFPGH
Also on record: species or system Escherichia coli.

Data set [8] deals with Epidermal growth factor receptor (Homo sapiens, UniProt P00533). The data set is described as follows: DRUGMATRIX: Protein Tyrosine Kinase, EGF Receptor enzyme inhibition (substrate: Poly(Glu:Tyr)). Type of data set: cell-based, Insect cells. The conditions noted are these: Not Active = under 50% inhibition at 10 µM.
Data set [9] addresses Cytochrome P450 2D6 (Homo sapiens, UniProt P10635). The conditions noted are these: bti-tn-5b1-4.
Data set [10] addresses Estrogen receptor beta (Homo sapiens, UniProt Q92731). The conditions noted are these: sf9.

Sequence of Estrogen receptor beta (Q92731 whole entry): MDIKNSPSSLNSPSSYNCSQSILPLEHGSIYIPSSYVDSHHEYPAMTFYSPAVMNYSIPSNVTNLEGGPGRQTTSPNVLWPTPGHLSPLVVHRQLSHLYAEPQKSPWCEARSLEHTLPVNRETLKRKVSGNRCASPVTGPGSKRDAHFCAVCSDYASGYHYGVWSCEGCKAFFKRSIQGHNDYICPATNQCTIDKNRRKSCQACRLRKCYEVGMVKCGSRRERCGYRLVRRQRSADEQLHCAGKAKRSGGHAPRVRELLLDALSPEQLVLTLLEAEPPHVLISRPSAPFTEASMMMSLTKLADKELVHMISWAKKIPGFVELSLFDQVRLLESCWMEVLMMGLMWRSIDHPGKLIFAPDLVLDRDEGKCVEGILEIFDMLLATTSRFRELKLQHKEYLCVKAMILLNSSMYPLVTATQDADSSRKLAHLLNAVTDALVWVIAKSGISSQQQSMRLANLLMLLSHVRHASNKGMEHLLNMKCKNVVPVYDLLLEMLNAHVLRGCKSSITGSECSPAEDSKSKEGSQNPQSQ
Sequence of Cannabinoid receptor 1 (P21554 whole entry): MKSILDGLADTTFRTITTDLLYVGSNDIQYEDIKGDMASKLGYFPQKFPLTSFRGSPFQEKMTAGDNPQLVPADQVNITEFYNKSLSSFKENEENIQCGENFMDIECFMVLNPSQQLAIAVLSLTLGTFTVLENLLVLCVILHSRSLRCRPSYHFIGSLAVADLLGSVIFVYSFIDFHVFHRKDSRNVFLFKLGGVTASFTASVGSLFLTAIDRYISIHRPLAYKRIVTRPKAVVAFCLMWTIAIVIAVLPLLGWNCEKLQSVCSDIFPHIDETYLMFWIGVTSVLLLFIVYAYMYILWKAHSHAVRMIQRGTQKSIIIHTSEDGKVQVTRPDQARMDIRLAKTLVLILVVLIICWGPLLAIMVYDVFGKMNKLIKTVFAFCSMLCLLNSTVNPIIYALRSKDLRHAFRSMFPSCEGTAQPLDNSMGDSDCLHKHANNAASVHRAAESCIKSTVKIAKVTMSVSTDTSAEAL
Sequence of Epidermal growth factor receptor (P00533 whole entry): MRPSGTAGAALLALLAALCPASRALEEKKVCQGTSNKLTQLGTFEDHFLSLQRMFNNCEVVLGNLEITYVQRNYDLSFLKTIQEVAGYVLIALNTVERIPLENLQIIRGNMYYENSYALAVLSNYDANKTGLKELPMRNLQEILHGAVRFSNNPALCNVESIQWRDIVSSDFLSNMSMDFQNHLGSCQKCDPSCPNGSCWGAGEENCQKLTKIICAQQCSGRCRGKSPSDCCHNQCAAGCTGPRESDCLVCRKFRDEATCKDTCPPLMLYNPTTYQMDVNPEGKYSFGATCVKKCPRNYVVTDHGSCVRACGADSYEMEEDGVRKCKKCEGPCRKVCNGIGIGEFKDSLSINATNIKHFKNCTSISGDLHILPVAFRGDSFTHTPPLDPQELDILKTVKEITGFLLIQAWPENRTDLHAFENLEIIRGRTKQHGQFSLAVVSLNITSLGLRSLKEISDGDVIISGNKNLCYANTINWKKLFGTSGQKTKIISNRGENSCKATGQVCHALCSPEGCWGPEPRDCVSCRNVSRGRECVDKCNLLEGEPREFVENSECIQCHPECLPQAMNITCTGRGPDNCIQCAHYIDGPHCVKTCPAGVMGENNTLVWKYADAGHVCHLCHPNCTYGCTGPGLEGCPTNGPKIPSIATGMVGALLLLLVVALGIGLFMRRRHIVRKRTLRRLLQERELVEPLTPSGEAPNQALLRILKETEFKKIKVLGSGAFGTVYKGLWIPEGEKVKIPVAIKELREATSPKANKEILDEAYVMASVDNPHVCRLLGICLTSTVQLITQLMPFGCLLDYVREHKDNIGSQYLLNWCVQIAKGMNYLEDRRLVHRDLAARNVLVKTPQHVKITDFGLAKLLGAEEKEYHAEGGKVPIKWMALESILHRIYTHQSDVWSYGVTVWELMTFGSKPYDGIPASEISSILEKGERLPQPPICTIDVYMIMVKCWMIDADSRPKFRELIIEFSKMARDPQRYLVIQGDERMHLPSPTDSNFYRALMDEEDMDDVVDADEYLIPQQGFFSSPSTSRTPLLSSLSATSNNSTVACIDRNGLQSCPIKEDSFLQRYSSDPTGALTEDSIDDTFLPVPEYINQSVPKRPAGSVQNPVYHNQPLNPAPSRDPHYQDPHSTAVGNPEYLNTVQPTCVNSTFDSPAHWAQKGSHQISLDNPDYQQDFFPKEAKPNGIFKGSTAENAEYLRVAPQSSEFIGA
Sequence of Cytochrome P450 2D6 (P10635 whole entry): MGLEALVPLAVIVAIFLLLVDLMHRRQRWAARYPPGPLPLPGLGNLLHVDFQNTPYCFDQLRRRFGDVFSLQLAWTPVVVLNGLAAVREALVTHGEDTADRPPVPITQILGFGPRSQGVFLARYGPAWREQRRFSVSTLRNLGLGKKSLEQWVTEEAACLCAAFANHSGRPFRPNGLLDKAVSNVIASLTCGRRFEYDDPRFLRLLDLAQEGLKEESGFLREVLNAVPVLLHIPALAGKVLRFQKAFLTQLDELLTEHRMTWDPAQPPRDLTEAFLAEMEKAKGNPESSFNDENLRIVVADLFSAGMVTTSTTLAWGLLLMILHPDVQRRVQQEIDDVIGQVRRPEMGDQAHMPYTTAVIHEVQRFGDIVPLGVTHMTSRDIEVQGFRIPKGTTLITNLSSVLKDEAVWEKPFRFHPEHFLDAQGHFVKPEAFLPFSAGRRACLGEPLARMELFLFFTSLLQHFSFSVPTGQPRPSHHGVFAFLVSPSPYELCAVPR

Take `CC1=C(CC(=O)O)c2cc(F)ccc2/C1=C\c1ccc([S+](C)[O-])cc1` (stereo unspecified): the 50% inhibitory concentration (IC50) result in data set [1], in data set [2] (platelet), in [3] (chem-1), in [4], in [5] and in [6] was “Not Active” each time. For the same molecule, the concentration for half-maximal inhibition (IC50) entry in data set [7], in data set [8] (insect cells), in data set [9] and in data set [10] was “Not Active” each time. Besides, the Ki result in [1], in [5], in data set [6] and in data set [9] was “Not Active” throughout.
In the case of `Clc1ccc2c(c1)C(N1CCNCC1)=Nc1ccccc1O2` [AMOXAPINE], the IC50 entry in [2] (platelet), in [3] (chem-1), in data set [4], in data set [7], in data set [8] (insect cells) and in data set [10] was “Not Active” in each case.
For `COc1cc2c(c(OC)c1OC)-c1ccc(OC)c(=O)cc1[C@@H](NC(C)=O)CC2` [COLCHICINE], the IC50 entry in data set [2] (platelet), in data set [3] (chem-1), in data set [4], in data set [7], in data set [8] (insect cells) and in data set [9] was “Not Active” throughout. For the same molecule, the IC50 result in data set [10] is given as “Not Active”. In addition, in data set [9], the Ki entry is listed as “Not Active”.
As for `CN1CCC(=C2c3ccccc3C=Cc3ccccc32)CC1` [CYPROHEPTADINE], the IC50 result in [2] (platelet), in data set [3] (chem-1), in data set [4], in data set [7], in data set [8] (insect cells) and in data set [9] was “Not Active” each time. For the same molecule, the IC50 entry in data set [10] was “Not Active”. In addition, the Ki entry in data set [9] is “Not Active”.
`CC/C(=C(/CC)c1ccc(O)cc1)c1ccc(O)cc1` [DIETHYLSTILBESTROL]: the IC50 in data set [2] (read-out: IC50) was 4.36 µM; in data set [3] (chem-1), “Not Active”; in data set [4], “Not Active”; in data set [7] it was “Not Active”; in [8] (insect cells) it was “Not Active”; in data set [9] it was “Not Active”. For the same molecule, the IC50 result in [10] is given as “Not Active”. Moreover, the Ki result in data set [9] is “Not Active”.
`CC(=O)N1CCN(c2ccc(OCC3COC(Cn4ccnc4)(c4ccc(Cl)cc4Cl)O3)cc2)CC1` (stereo unspecified) [KETOCONAZOLE]: the IC50 entry in data set [1] was “Not Active”; in data set [2] (read-out: IC50), 2.17 µM; in data set [3] (chem-1), “Not Active”; in [4], “Not Active”; in data set [5], “Not Active”; in data set [6], “Not Active”. In addition, the IC50 entry in data set [7], in [8] (insect cells) and in data set [10] was “Not Active” throughout. Further, the Ki result in data set [1], in [5] and in data set [6] was “Not Active” each time.
As to `C=CCN1CC[C@]23c4c5ccc(O)c4O[C@H]2C(=O)CC[C@@]3(O)[C@H]1C5` [NALOXONE], the IC50 entry in data set [2] (platelet), in data set [3] (chem-1), in data set [4], in data set [7], in data set [8] (insect cells) and in data set [10] was “Not Active” in each case.
For `COCCOC(=O)C1=C(C)NC(C)=C(C(=O)OC(C)C)C1c1cccc([N+](=O)[O-])c1` (stereo unspecified) [NIMODIPINE], the IC50 in [1] (read-out: IC50) was 0.242 nM; in [2] (platelet), “Not Active”; in [3] (read-out: IC50) it was 1740 nM; in data set [4], “Not Active”; in data set [5], “Not Active”; in data set [6], “Not Active”. The IC50 entry in [7] and in data set [8] (insect cells) was “Not Active” each time. Besides, the Ki was 0.156 nM in data set [1] (read-out: Ki), 1370 nM in [3] (read-out: Ki), “Not Active” in data set [5] and “Not Active” in data set [6].
With `CC(C)NCC(O)COc1cccc2ccccc12` (stereo unspecified) [PROPRANOLOL], the IC50 result in data set [2] (platelet), in data set [3] (chem-1), in data set [4], in [7], in [8] (insect cells) and in [10] was “Not Active” each time.
Take `CC(C)c1nc(CN(C)C(=O)N[C@H](C(=O)N[C@@H](Cc2ccccc2)C[C@H](O)[C@H](Cc2ccccc2)NC(=O)OCc2cncs2)C(C)C)cs1` [RITONAVIR]: the IC50 result in data set [1], in [3] (chem-1), in [4], in data set [5], in [6] and in data set [7] was “Not Active” throughout. Besides, the IC50 result in data set [8] (insect cells) and in data set [10] was “Not Active” throughout. The Ki result in data set [1], in data set [5] and in data set [6] was “Not Active” in each case.
On to `Cc1cc(C)nc(NS(=O)(=O)c2ccc(N)cc2)n1` [SULFAMETHAZINE], for which the IC50 result in data set [1], in data set [2] (platelet), in [3] (chem-1), in data set [4], in [5] and in data set [6] was “Not Active” each time. For the same molecule, the IC50 entry in [7], in data set [8] (insect cells) and in data set [9] was “Not Active” each time. Also, the Ki result in [1], in data set [5], in data set [6] and in data set [9] was “Not Active” each time.
For the molecule `C[C@]1(Cn2ccnn2)[C@H](C(=O)O)N2C(=O)C[C@H]2S1(=O)=O` [TAZOBACTAM], the IC50 entry in data set [1], in [2] (platelet), in data set [3] (chem-1), in [4], in data set [5] and in data set [6] was “Not Active” throughout. For the same molecule, the IC50 entry in data set [7], in data set [8] (insect cells) and in data set [9] was “Not Active” in each case. Also, the Ki entry in data set [1], in [5], in [6] and in data set [9] was “Not Active” throughout.
On to `CC(=O)CC(c1ccccc1)c1c(O)c2ccccc2oc1=O` (stereo unspecified) [WARFARIN], for which the IC50 result in data set [1], in data set [2] (platelet), in data set [3] (chem-1), in data set [4], in data set [5] and in [6] was “Not Active” in each case. Also, the IC50 entry in [7], in [8] (insect cells) and in [9] was “Not Active” in each case. Moreover, the inhibition constant (Ki) result in [1], in data set [5], in data set [6] and in data set [9] was “Not Active” throughout.
As to `C[C@@H](N)[C@H]1CC[C@H](C(=O)Nc2ccncc2)CC1` [Y-27632], the IC50 result in [1], in data set [2] (platelet), in [3] (chem-1), in [4], in [5] and in data set [6] was “Not Active” in each case. Besides, the IC50 result in data set [7], in [9] and in data set [10] was “Not Active” throughout. Also, the inhibition constant (Ki) result in data set [1], in [5], in [6] and in [9] was “Not Active” throughout.
Regarding `[Cl-].[Cl-].[Zn+2]` [ZINC CHLORIDE], the IC50 entry in data set [1], in data set [2] (platelet), in data set [3] (chem-1), in data set [4], in [5] and in data set [6] was “Not Active” in each case. In addition, the IC50 entry is “Not Active” in [7], 2190 nM in data set [8] (read-out: IC50) and “Not Active” in data set [9]. Besides, the Ki result in [1], in data set [5], in data set [6] and in data set [9] was “Not Active” throughout.
